Measurements as given in patent EP0011400A1, “An aminoglycosidic antibiotic salt” (priority 1978, dated 1980).
Where a name gives a salt, the structure may show the parent alone.

Legend:
Male Hartley guinea pigs [1] = assay: Example 6: toxicity of gentamicin salts on intramuscular injection for 14 days (deaths, pinna reflex, BUN, CRE); assay type: in vivo; conditions: 100 mg (as a free base)/kg/day; for CRE: creatine in sera; for CRE / BUN: 24 hours after the pinna reflex determination; for Number died/ Number tested: 14 consecutive days; for BUN: sera
Description: The amount of the test compounds administered was calculated on the basis of the free base (i.e., free gentamicin). […] The second group was injected with an equal dose of a solution of gentamicin sulfate in water for injection. […] After injection with the final dose, each group was subjected to a pure tone having a frequency of 20,000 Hz to determine the pinna reflex of the subject guinea pigs. Twenty-four hours after the determination, the levels of blood urea nitrogen (BUN) and creatine (CRE) in sera were measured.

Male Hartley guinea pigs [2] = assay: Example 9: toxicity of kanamycin A salts on intramuscular injection for 14 days (deaths, pinna reflex, BUN); assay type: in vivo; conditions: 400 mg (as a free base)/kg/day, 14 consecutive days
Description: The second group was injected with a solution of kanamycin A sulfate in water for injection in an equal dose. The third group was injected with a solution of a mixture of kanamycin A sulfate and potassium salt of D-glucaro-1,5-lactam (in a molar ratio of […]) in water for injection in an eaual dose.

Male Hartley guinea pigs [3] = assay: Example 8: toxicity of tobramycin and bekanamycin salts on intramuscular injection (deaths, pinna reflex); assay type: in vivo; conditions: for Pinna Reflex Lost: * including dead cases; for Number died/ Number tested: guinea pigs, intramuscular
Description: The second group was injected with a solution of tobramycin sulfate in water for injection in an equal dose. […] After injection with the final dose, the pinna reflex of each subject guinea pig to a pure tone having a frequency of 15,000 Hz was determined. […] Both group were then subjected to determination of their pinna reflex to a 15,000^-Hz pure tone.

Male Hartley guinea pigs [4] = assay: Example 7: toxicity of dibekacin salts on intramuscular injection for 21 days (deaths, pinna reflex, BUN); assay type: in vivo; conditions: for Number of guinea pigs which lost pinna reflex 10days / Number of guinea pigs which lost pinna reflex 14days / Number of guinea pigs which lost pinna reflex 17days / Number of guinea pigs which lost pinna reflex 21days: 180 mg (as a free base)/kg/day intramuscular, 20,000 Hz pure tone; for Number of guinea pigs which lost pinna reflex 21days: * including dead cases; for Number died/ Number tested: guinea pigs, intramuscular, 21 consecutive days; for Number died/ Number tested / BUN: 180 mg (as a free base)/kg/day; for BUN: sera, 24 hours after final dose; for Number of guinea pigs which lost pinna reflex 21days / BUN: 21 days
Description: The second group was injected with an equal dose of a solution of dibekacin sulfate in water for injection. […] During the intramuscu]ar injection, the pinna reflex of each subject guinea pig to a pure tone having a frequency of 20,000 Hz was determined. Twenty-four hours after the injection with the final dose, the level of BUN in sera was measured.

[5] = system: Pseudomonas aeruginosa E-2; assay: Example 10: survival of mice infected intraperitoneally; assay type: in vivo; conditions: ICR-JCL mice, intramuscular; for Percentage Survival (%) Dosage 0.0625 mg: 0.0625 mg (as a free base)/mouse; for Percentage Survival (%) Dosage 0.0625 mg / Percentage Survival (%) Dosage 0.25 mg / Percentage Survival (%) Dosage 1 mg: one week after the injection; for Percentage Survival (%) Dosage 1 mg: 1 mg (as a free base)/mouse; for ED50: Pseudomonas aeruginosa, E2, im, 168 h, calculated by Ritchfield-Wilcoxon technique, the two values not significantly different
Description: The second group was injected with a solutio of dibekacin sulfate in sterile physiological saline solution in the above indicated doses. […] The percentage survival of each group was checked one week after the injection.

[6] = Solubility of the salt powder in water and organic solvents; assay type: physicochemical
Male Hartley guinea pigs [7] = assay: Example 11: pinna reflex after intramuscular injection of gentamicin salts for 21 days; conditions: 80 mg (as a free base)/kg/day, 20,000 Hz pure tone after final dose
Description: Male Hartley guinea pigs weighing 300 g on average were used as the test animals in three groups each consisting of 6 guinea pigs which were subjected to intramuscular injection of the following substances for 21 consecutive days. The first group was injected with a solution of the salt of gentamicin and D-glucaro-1,5-lactam in water for injection in a dose of 80 mg (as a free base)/kg/day. The second group was injected with a solution of gentamicin sulfate in water for injection in an equal dose. The third group was a control which was injected with distilled water.

[8] = pH of an aqueous solution of the salt; assay type: physicochemical
[9] = guinea pigs, intramuscular, 14 days, 20,000 Hz pure tone after final dose
[10] = 250 mg (as a free base)/kg/day, 14 days, 15,000 Hz pure tone
[11] = 250 mg (as a free base)/kg/day, 14 consecutive days
[12] = 120 mg (as a free base)/kg/day, 16 days, 15,000 Hz pure tone after final dose

## gentamicin sulfate [reference compound]
Male Hartley guinea pigs [1]; 14 days
  CRE: 1.80±0.57
  BUN: 92.3 ± 50.42 mg/dL
Male Hartley guinea pigs [1]; guinea pigs, intramuscular
  Number died/ Number tested: 7/9
Male Hartley guinea pigs [1]; [9]
  Pinna Reflex Dull: 2/5
  Pinna Reflex Lost: 3/5

## NC[C@H]1O[C@H](O[C@H]2[C@H](O)[C@@H](O[C@H]3O[C@H](CO)[C@@H](O)[C@H](N)[C@H]3O)[C@H](N)C[C@@H]2N)[C@H](O)[C@@H](O)[C@@H]1O [Kanamycin sulfate, kanamycin A sulfate, reference compound]
Male Hartley guinea pigs [2]
  Number died/ Number tested: 0/6

## NC[C@H]1O[C@H](O[C@H]2[C@H](O)[C@@H](O[C@H]3O[C@H](CO)[C@@H](O)[C@H](N)[C@H]3O)[C@H](N)C[C@@H]2N)[C@H](N)[C@@H](O)[C@@H]1O [Bcanamycin sulfate, bekanamycin sulfate]
Male Hartley guinea pigs [3]; [10]
  Pinna Reflex Dull: 1/4
  Pinna Reflex Lost: 3/4*
Male Hartley guinea pigs [3]; [11]
  Number died/ Number tested: 2/6

## NCC1OC(OC2C(N)CC(N)C(OC3OC(CO)C(O)C(N)C3O)C2O)C(N)CC1O (stereo not shown) [Tobramycin sulfate, tobramycin sulfate]
Male Hartley guinea pigs [3]; [12]
  Pinna Reflex Dull: 2/9
  Pinna Reflex Normal: 7/9
Male Hartley guinea pigs [3]; 120 mg (as a free base)/kg/day, 16 consecutive days
  Number died/ Number tested: 0/9

## NCC1CCC(N)C(OC2C(N)CC(N)C(OC3OC(CO)C(O)C(N)C3O)C2O)O1 (stereo not shown) [Dibekacin sulfate, dibekacin sulfate, reference compound]
Male Hartley guinea pigs [4]
  Number of guinea pigs which lost pinna reflex 10days: 0/6
  Number of guinea pigs which lost pinna reflex 14days: 3/6
  Number of guinea pigs which lost pinna reflex 17days: 3/6
  Number of guinea pigs which lost pinna reflex 21days: 5/6*
  Number died/ Number tested: 1/6
  BUN: 41.8 ± 26.9 mg/dL
[5]
  Percentage Survival (%) Dosage 0.0625 mg: 0%
  Percentage Survival (%) Dosage 0.25 mg: 30%
  Percentage Survival (%) Dosage 1 mg: 100%
  ED50: 15.7 mg/kg

## NC[C@H]1O[C@H](O[C@H]2[C@H](O)[C@@H](O[C@H]3O[C@H](CO)[C@@H](O)[C@H](N)[C@H]3O)[C@H](N)C[C@@H]2N)[C@H](N)[C@@H](O)[C@@H]1O [Glucarolactam salt of bekanamycin, Salt of bekanamycin and D-glucaro-1,5-lactam]
[6]
  solubility in ethanol, acetone, ethyl acetate and chloroform: very slightly soluble
  solubility in water: freely soluble
Male Hartley guinea pigs [3]; [10]
  Pinna Reflex Dull: 3/6
  Pinna Reflex Lost: 3/6
Male Hartley guinea pigs [3]; [11]
  Number died/ Number tested: 0/6

## NC[C@H]1O[C@H](O[C@H]2[C@H](O)[C@@H](O[C@H]3O[C@H](CO)[C@@H](O)[C@H](N)[C@H]3O)[C@H](N)C[C@@H]2N)[C@H](O)[C@@H](O)[C@@H]1O [Glucarolactam salt of kanamycin, Salt of kanamycin A and D-glucaro-1,5-lactam]
[6]
  solubility in ethanol, acetone, ethyl acetate and chloroform: very slightly soluble
  solubility in water: freely soluble
Male Hartley guinea pigs [2]
  Number died/ Number tested: 0/6

## Salt of gentamicin and D-glucaro-1,5-lactam [Glucarolactam salt of gentamicin]
[6]
  solubility in ethanol, acetone, ethyl acetate and chloroform: very slightly soluble
  solubility in methanol: sparingly soluble
  solubility in water: freely soluble
Male Hartley guinea pigs [1]; 14 days
  CRE: 1.20±0.51
  BUN: 64.6 ± 43.97 mg/dL
Male Hartley guinea pigs [1]; guinea pigs, intramuscular
  Number died/ Number tested: 2/9
Male Hartley guinea pigs [1]; [9]
  Pinna Reflex Lost: 1/7
  Pinna Reflex Normal: 6/7
Male Hartley guinea pigs [7]
  Pinna Reflex Dull: 2/6
  Pinna Reflex Normal: 3/6
Male Hartley guinea pigs [7]; * including one guinea pig dead on the 21th day
  Pinna Reflex Lost: 1/6
[8]
  pH of an aqueous solution of the salt: 6.7

## NC[C@@H]1CC[C@@H](N)[C@@H](O[C@H]2[C@H](O)[C@@H](O[C@H]3O[C@H](CO)[C@@H](O)[C@H](N)[C@H]3O)[C@H](N)C[C@@H]2N)O1 [Glucarolactam salt of dibekacin, Salt of dibekacin and D-glucaro-1,5-lactam]
Male Hartley guinea pigs [4]
  Number of guinea pigs which lost pinna reflex 10days: 0/6
  Number of guinea pigs which lost pinna reflex 14days: 0/6
  Number of guinea pigs which lost pinna reflex 17days: 0/6
  Number of guinea pigs which lost pinna reflex 21days: 3/6
  Number died/ Number tested: 0/6
  BUN: 35.7 ± 13.3 mg/dL
[6]
  solubility in ethanol, acetone, ethyl acetate and chloroform: very slightly soluble
  solubility in methanol: sparingly soluble
  solubility in water: freely soluble
[5]
  Percentage Survival (%) Dosage 0.0625 mg: 0%
  Percentage Survival (%) Dosage 0.25 mg: 20%
  Percentage Survival (%) Dosage 1 mg: 100%
  ED50: 19.1 mg/kg
